Results: ChEMBL document CHEMBL1201862, “PubChem BioAssay data set” (2004)
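Test compounds were applied to cells in 96-well plates for 48 hours at 5 doses. GI50 is the concentration that inhibits growth by half.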 Activity calls are given as the source filed them. Cut-off read from the data, not from the text of the source: active = GI50 up to about 1.1 µM and inactive = higher.

Tests used:
Assay in all cases: NCI-60 cell line screen, 48 h
[1] = system: DMS-114
[2] = system: DMS-273
[3] = system: HOP-18
[4] = system: KM-20L2
[5] = system: LXFL 529
[6] = system: M19-MEL
[7] = system: RXF 631
[8] = system: SNB-78
[9] = system: XF498

Measured: GI50

CCCCC1(OC(=O)CCC(=O)O)CCC2(CCC(C)C(C/C=C(C)/C=C/C(O)C(C)/C=C/C(=O)O)O2)OC1CC/C(C)=C/C(=O)O (centres undefined)
inactive: [1] 2450 nM | [2] 5940 nM | [3] 4580 nM | [4] 10900 nM | [5] 1800 nM | [6] 2840 nM | [7] 1930 nM | [8] 2550 nM | [9] 2030 nM
